Bounds are passed on as bounds.

Data on 15 compounds can be found in patent US20250236616A1, “IMMUNOMODULATING AZALIDES” (Zoetis Services LLC, priority 2021, published 2025).

What all share (format): cell-based
One assay has as its system IL-1β. Briefly: Whole bovine blood assay, LPS-induced IL-1β (inhibition / overstimulation). Conditions: drug concentration giving overstimulation (OS) of LPS-induced IL-1β, top concentration 250 μM. The method, then: (§1) Whole Blood Assay-Fresh whole bovine blood samples were collected into heparinized vacutainer tubes. Assay plates were prepared with 25 μL of drug diluted in PBS at varying concentration in 96 round bottom wells, then 225 μL of blood was added and plates incubated at 37° C. for 4 hours. Cells were stimulated with LPS (or PBS for controls) by adding 25 μL to the plates at a final concentration of 1 μg/mL and incubated at 37° C. for 18 hours. To collect plasma, plates were centrifuged at 2,000×g for 10 minutes and 100 μL of supernatant was transferred to a 96 well polypropylene plate that was sealed and stored at −80° C. Samples were assayed for cytokines using the Meso Scale Discovery (MSD) platform (described below). This same MSD platform was used to assess cytokines in the plasma collected directly from drug treated animals.
(§2) Cytokine Detection—An MSD U-Plex cytokine assay was developed following the MSD U-Plex protocol guide and included biotinylated capture antibodies against: bovine Interleukin (IL)-1β (Biorad), bovine IL-6 (R&D Systems) and bovine tumor necrosis factor (TNF)-α (R&D Systems). The anti-IL-1β antibody was biotinylated using EZ-Link Sulfo-NHS-Biotin (Thermo Scientific) at a challenge ratio of 1:20 according to manufacturer instructions. Assay calibrators (Kingfisher) were diluted to a concentration of […] in control lithium heparin plasma, followed by 4-fold serial dilutions into plasma. The detection antibodies were sulfo-tagged following the MSD quick guide conjugation protocol using a challenge ratio of 1:20. Antibodies were used at the following concentrations: anti-IL-1β at 1 μg/mL, anti-IL-6 at 1 μg/mL and anti-TNF-α at 0.5 μg/mL. Cytokines were quantified according to manufacturer's instructions using a chemiluminescent readout. In brief, 0.5 mL of all biotinylated antibodies were diluted to 10 μg/mL with Diluent 100 and paired to their respective linkers by adding 750 μL of supplied Linker solution and incubated for 30 minutes followed by addition of Stop solution for another 30 minutes. The linked antibodies were then diluted 10-fold into Stop solution. Plates were coated by adding 50 μL of antibody solutions per well and incubated covered and shaking for 1 hour at room temperature. Plates were washed three times with PBS/Tween20 prior to samples or standards being added at 30 μL per well and incubated as above. Plates were washed three times before detection antibodies were added along with 2% goat and rabbit serum to block and incubated same as above. Plates were washed a further three times before addition of 150 μL 2X Read buffer and read immediately on the SI6000 instrument (MSD). For soluble protein levels, a BCA protein kit (Thermofisher) was used. The cytokine concentrations (pg/mL) were normalized to the total protein levels for each sample. [Bassel et. al., BMC Veterinary Research (2020) 16:168]
(§3) Therefore, a fresh whole bovine blood assay was developed with LPS as a stimulant (TLR-4 agonist) and with IL-1β and TNF-α as the read-out. Compounds of the invention were evaluated against a positive control for their ability to inhibit LPS-induced IL-1β and TNF-α as an overall evaluation of relative potency and modulation of target pathways.
For M9, the top dose of 500 μM was not high enough to determine an overstimulation of IL-1 B which was recorded as not applicable (n/a). The enhanced response indicates increased concentration of IL-1β cytokine at the drug concentration indicated. This is generally observed when compounds are out of range (high concentration) and stimulate a cellular toxicity signal. Further data supporting this hypothesis includes murine studies using a P. multocida infection in mice.
TNFα is a cell signaling protein, cytokine, that plays a key role in both acute and chronic inflammation. […]

In the next assay the test system is TNF-α. Nature of the assay: Whole bovine blood assay, LPS-induced TNF-α. As to conditions: fresh whole bovine blood, LPS stimulant; top drug concentration 250 μM. How it is done:
as §1
as §2, with “The anti-IL-1β antibody was biotinylated using EZ-Link Sulfo-NHS-Biotin (Thermo Scientific) at a challenge ratio of 1:20 according to manufacturer instructions.” left out, “The detection antibodies were sulfo-tagged following the MSD quick guide conjugation protocol using a challenge ratio of 1:20.” left out
as §3
TNFα is a cell signaling protein, cytokine, that plays a key role in both acute and chronic inflammation. In the bovine whole blood in vitro screening assay the inhibition of TNFα as induced by stimulation by lipopolysaccharide (LPS) and as measured by half the maximal inhibitory concentration (IC50) is recognized as the primary biomarker of immunomodulation potency upon pretreatment with the compounds of the invention. IL-1 B is a mediator of the inflammation response and is involved in a number of cellular activities including proliferation, differentiation and apoptosis. IL-1ß is also released upon cellular stress or cytotoxicity or upon TLR stimulation. […] In order to estimate a therapeutic index from the in vitro assay a differential between the TNFα IC50 (immunomodulation potency) versus the perceived cellular toxicity concentration (IL-1β release or overstimulation) was utilized.

The subject of a further assay is IL-6. Nature of the assay: Whole bovine blood assay, LPS-induced IL-6. Conditions: fresh whole bovine blood, LPS stimulant; top drug concentration 250 μM.

Compound `CCCNC[C@]1(O)[C@H](C)O[C@@H](O[C@H]2[C@H](C)[C@@H](O[C@@H]3O[C@H](C)C[C@H](N(C)S(=O)(=O)c4c(C)noc4C)[C@H]3O)[C@](C)(O)C[C@@H](C)CN[C@H](C)[C@@H](O)[C@](C)(O)[C@@H](CC)OC(=O)[C@@H]2C)C[C@@]1(C)OC` [Example B-4] returned a minimal effective concentration in the assay on IL-1β of 40 µM.

Take `CCCNC[C@]1(O)[C@H](C)O[C@@H](O[C@H]2[C@H](C)[C@@H](O[C@@H]3O[C@H](C)C[C@H](N(C)S(=O)(=O)c4ccc(S(C)(=O)=O)cc4)[C@H]3O)[C@](C)(O)C[C@@H](C)CN[C@H](C)[C@@H](O)[C@](C)(O)[C@@H](CC)OC(=O)[C@@H]2C)C[C@@]1(C)OC` [Example B-11]: in the assay with IL-1β, the minimal effective concentration is above 250 µM. The same measure, in the same setting: the same measure for `CCCNC[C@]1(O)[C@H](C)O[C@@H](O[C@H]2[C@H](C)[C@@H](O[C@@H]3O[C@H](C)C[C@H](N(C)S(=O)(=O)c4ccc(S(N)(=O)=O)cc4)[C@H]3O)[C@](C)(O)C[C@@H](C)CN[C@H](C)[C@@H](O)[C@](C)(O)[C@@H](CC)OC(=O)[C@@H]2C)C[C@@]1(C)OC` [Example B-15]: above 250 µM; for `CCCNC[C@]1(O)[C@H](C)O[C@@H](O[C@H]2[C@H](C)[C@@H](O[C@@H]3O[C@H](C)C[C@H](N(C)S(=O)(=O)c4ccc(C#N)nc4)[C@H]3O)[C@](C)(O)C[C@@H](C)CN[C@H](C)[C@@H](O)[C@](C)(O)[C@@H](CC)OC(=O)[C@@H]2C)C[C@@]1(C)OC` [Example B-17]: 100 µM.

Take `CC[C@H]1OC(=O)[C@H](C)[C@@H](O[C@H]2C[C@@](C)(OC)[C@](O)(CN3CCCCC3)[C@H](C)O2)[C@H](C)[C@@H](O[C@@H]2O[C@H](C)C[C@H](N(C)S(=O)(=O)c3ccc(C(F)(F)F)cc3)[C@H]2O)[C@](C)(O)C[C@@H](C)CN[C@H](C)[C@@H](O)[C@]1(C)O` [Example C-18]: the half-maximal inhibitory concentration (IC50) in the assay on TNF-α was found to be 6 µM; with IL-6, 5 µM.

For the compound `CC[C@H]1OC(=O)[C@H](C)[C@@H](O[C@H]2C[C@@](C)(OC)[C@](O)(CN3CCCCC3)[C@H](C)O2)[C@H](C)[C@@H](O[C@@H]2O[C@H](C)C[C@H](N(C)S(=O)(=O)c3ccc(F)cc3)[C@H]2O)[C@](C)(O)C[C@@H](C)CN[C@H](C)[C@@H](O)[C@]1(C)O` [Example C-19], the half-maximal inhibitory concentration (IC50) in the assay with TNF-α was determined as 5 µM; with IL-6 it was 7 µM.

With `CC[C@H]1OC(=O)[C@H](C)[C@@H](O[C@H]2C[C@@](C)(OC)[C@](O)(CN3CCCCC3)[C@H](C)O2)[C@H](C)[C@@H](O[C@@H]2O[C@H](C)C[C@H](N(C)S(=O)(=O)Nc3ccc(C(C)(C)C)cc3)[C@H]2O)[C@](C)(O)C[C@@H](C)CN[C@H](C)[C@@H](O)[C@]1(C)O` [Example C-22], the values for the half-inhibitory concentration (IC50) in the assay on TNF-α and with IL-6 were 4 µM and 6 µM, respectively.

As to `CC[C@H]1OC(=O)[C@H](C)[C@@H](O[C@H]2C[C@@](C)(OC)[C@](O)(CN3CCCCC3)[C@H](C)O2)[C@H](C)[C@@H](O[C@@H]2O[C@H](C)C[C@H](N(C)S(=O)(=O)Nc3cccc(Cl)c3)[C@H]2O)[C@](C)(O)C[C@@H](C)CN[C@H](C)[C@@H](O)[C@]1(C)O` [Example C-23], the half-inhibitory concentration (IC50) in the assay with TNF-α stood at 9 µM; in the assay with IL-6, 10 µM. In the same order, the values of `CC[C@H]1OC(=O)[C@H](C)[C@@H](O[C@H]2C[C@@](C)(OC)[C@](O)(CN3CCCCC3)[C@H](C)O2)[C@H](C)[C@@H](O[C@@H]2O[C@H](C)C[C@H](N(C)S(=O)(=O)Nc3ccc(Cl)c(Cl)c3)[C@H]2O)[C@](C)(O)C[C@@H](C)CN[C@H](C)[C@@H](O)[C@]1(C)O` [Example C-28] are 25 µM and 25 µM. The matching figures for `CC[C@H]1OC(=O)[C@H](C)[C@@H](O[C@H]2C[C@@](C)(OC)[C@](O)(CN3CCCCC3)[C@H](C)O2)[C@H](C)[C@@H](O[C@@H]2O[C@H](C)C[C@H](N(C)S(=O)(=O)Nc3ccc(C)cc3)[C@H]2O)[C@](C)(O)C[C@@H](C)CN[C@H](C)[C@@H](O)[C@]1(C)O` [Example C-32]: 5 µM and 8 µM.

As for `CC[C@H]1OC(=O)[C@H](C)[C@@H](O[C@H]2C[C@@](C)(OC)[C@](O)(CN3CCCCC3)[C@H](C)O2)[C@H](C)[C@@H](O[C@@H]2O[C@H](C)C[C@H](N(C)S(=O)(=O)Nc3ccc(C)c(C)c3)[C@H]2O)[C@](C)(O)C[C@@H](C)CN[C@H](C)[C@@H](O)[C@]1(C)O` [Example C-33], the IC50 with TNF-α and in the assay with IL-6 was 7 µM each time.

Regarding `CC[C@H]1OC(=O)[C@H](C)[C@@H](O[C@H]2C[C@@](C)(OC)[C@](O)(CN3CCCCC3)[C@H](C)O2)[C@H](C)[C@@H](O[C@@H]2O[C@H](C)C[C@H](N(C)S(=O)(=O)Nc3ccc(C(F)(F)F)cc3)[C@H]2O)[C@](C)(O)C[C@@H](C)CN(CC)[C@H](C)[C@@H](O)[C@]1(C)O` [Example C-36], the IC50 amounted to 6 µM in the assay on TNF-α and 9 µM in the assay with IL-6. Turning to `CCCN([C@H]1C[C@@H](C)O[C@@H](O[C@@H]2[C@@H](C)[C@H](O[C@H]3C[C@@](C)(OC)[C@](O)(CN4CCCCC4)[C@H](C)O3)[C@@H](C)C(=O)O[C@H](CC)[C@@](C)(O)[C@H](O)[C@@H](C)NC[C@H](C)C[C@@]2(C)O)[C@@H]1O)S(=O)(=O)c1ccc(Cl)cc1` [Example C-40], the IC50 in the assay on TNF-α was 5 µM; with IL-6, 4 µM.

Turning to `CC[C@H]1OC(=O)[C@H](C)[C@@H](O[C@H]2C[C@@](C)(OC)[C@](O)(CN3CCCCC3)[C@H](C)O2)[C@H](C)[C@@H](O[C@@H]2O[C@H](C)C[C@H](N(CC(C)C)S(=O)(=O)c3ccc(Cl)cc3)[C@H]2O)[C@](C)(O)C[C@@H](C)CN[C@H](C)[C@@H](O)[C@]1(C)O` [Example C-42], the half-inhibitory concentration (IC50) in the assay on TNF-α and in the assay on IL-6 was 6 µM each time.

Consider `CC[C@H]1OC(=O)[C@H](C)[C@@H](O[C@H]2C[C@@](C)(OC)[C@](O)(CN3CCCCC3)[C@H](C)O2)[C@H](C)[C@@H](O[C@@H]2O[C@H](C)C[C@H](N(C)S(=O)(=O)c3nccn3C)[C@H]2Oc2ccc(F)cc2)[C@](C)(O)C[C@@H](C)CN[C@H](C)[C@@H](O)[C@]1(C)O` [Example C-56], for which the IC50 in the assay on TNF-α was found to be 5 µM; with IL-6 it was 4 µM.

The minimal effective concentration is the smallest amount tested that counted as effective. In general, IC50 refers to the concentration at which inhibition is half-maximal. Lower therefore signals greater potency in that assay.
